Patent publication US20240409585A1, “MACROCYCLIC IMMUNOMODULATORS” (priority 2021, published 2024)
Bridge positions count the residues as written; N and C are the ends. Square brackets hold non-standard residues; d marks the D form. Peptide text beside a SMILES is read from it. * marks the point of attachment. ξ: configuration not given here. Phe(4-COOH) = N[C@@H](Cc1ccc(C(=O)O)cc1)C(=O)O; Bip = N[C@@H](Cc1ccc(-c2ccccc2)cc1)C(=O)O; 4Pal = N[C@@H](Cc1ccncc1)C(=O)O; Cha = N[C@@H](CC1CCCCC1)C(=O)O; Ile(3ξ) = CCC(C)[C@H](N)C(=O)O; dDab = NCC[C@@H](N)C(=O)O; Carboxymethyl = O=C(O)C*; NMeA = CN[C@@H](C)C(=O)O; Dab = NCC[C@H](N)C(=O)O; ξN = NC(=O)CC(N)C(=O)O

target: T1, PE-labeled human PD-L1-Ig binding to Jurkat cell line over-expressing human PD-1 (Jurkat-PD-1) (Homo sapiens, UniProt Q15116); test: Jurkat-PD-1 Cell Binding High-Content Screening Assay (CBA): Method 1; conditions: Jurkat-hPD-1 cells, PE-labeled PD-L1-Ig 20 nM final; read-out: Jurkat HPDL1 PD1 IC50 (uM) (Method 1)
T1 construct: expressed in transfected cells; host or cells: Jurkat
T1 sequence (Q15116 25-288): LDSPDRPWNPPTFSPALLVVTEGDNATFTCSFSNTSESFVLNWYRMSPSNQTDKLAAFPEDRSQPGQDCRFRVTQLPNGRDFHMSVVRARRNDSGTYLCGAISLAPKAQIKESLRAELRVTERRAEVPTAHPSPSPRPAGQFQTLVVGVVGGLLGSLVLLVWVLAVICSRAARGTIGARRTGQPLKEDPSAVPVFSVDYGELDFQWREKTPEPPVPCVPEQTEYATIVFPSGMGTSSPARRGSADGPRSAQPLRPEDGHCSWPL
Protocol: Phycoerythrin (PE) was covalently linked to the Ig epitope tag of human PD-L1-Ig and fluorescently-labeled PD-L1-Ig was used for binding studies with a Jurkat cell line over-expressing human PD-1 (Jurkat-PD-1). Briefly, 8×10^3 Jurkat-hPD-1 cells were seeded into 384 well plates in 20 μl of DMEM supplemented with 10% fetal calf serum. 100 nl of compound was added to cells followed by incubation at 37° C. for 2 hours. Then, 5 μl of PE-labeled PD-L1-Ig (20 nM final), diluted in DMEM supplemented with 10% fetal calf serum. […] Data was collected and processed using a Cell Insight NXT High Content Imager and associated software.

IC50	SMILES
0.01 µM	CC(C)C[C@@H]1NC(=O)[C@H](Cc2c[nH]c3ccccc23)NC(=O)[C@H](CC(=O)O)NC(=O)[C@H](Cc2ccncc2)NC(=O)[C@H](Cc2ccc(OCC(=O)O)cc2)NC(=O)CSC[C@@H](C(=O)N[C@H](CCN)C(N)=O)NC(=O)[C@H]([C@@H](C)O)NC(=O)[C@H](C(C)C)NC(=O)[C@H](CC2CCCCC2)NC(=O)[C@H](CCN)NC(=O)[C@@H](CC(C)C)NC(=O)[C@H](C)N(C)C(=O)[C@H](C(C)C)NC(=O)[C@H](Cc2ccc(-c3ccccc3)cc2)NC1=O [Compound 1904] ({CH2CO}-Y(Carboxymethyl)[4Pal]DWL[Bip]V[NMeA][dL][Dab][Cha]VTC[dDab]-NH2; thioether N-14)
0.01 µM	CC(C)C[C@@H]1NC(=O)[C@H](Cc2c[nH]c3ccccc23)NC(=O)[C@H](CC(=O)O)NC(=O)[C@H](Cc2ccncc2)NC(=O)[C@H](Cc2ccc(OCC(=O)O)cc2)NC(=O)CSC[C@@H](C(=O)N[C@@H](CCN)C(N)=O)NC(=O)[C@H](CO)NC(=O)[C@H](C(C)C)NC(=O)[C@H](CC2CCCCC2)NC(=O)[C@H](CCN)NC(=O)[C@@H](CC(C)C)NC(=O)[C@H](C)N(C)C(=O)[C@H](C(C)C)NC(=O)[C@H](Cc2ccc(-c3ccccc3)cc2)NC1=O [Compound 1905] ({CH2CO}-Y(Carboxymethyl)[4Pal]DWL[Bip]V[NMeA][dL][Dab][Cha]VSC[Dab]-NH2; thioether N-14)
0.05 µM	CC(C)C[C@@H]1NC(=O)[C@H](Cc2c[nH]c3ccccc23)NC(=O)[C@H](CC(=O)O)NC(=O)[C@H](Cc2ccncc2)NC(=O)[C@H](Cc2ccc(OCC(=O)O)cc2)NC(=O)CSC[C@@H](C(=O)N[C@@H](CC(N)=O)C(N)=O)NC(=O)[C@H](CO)NC(=O)[C@H](C(C)C)NC(=O)[C@H](CC2CCCCC2)NC(=O)[C@H](CCN)NC(=O)[C@@H](CC(C)C)NC(=O)[C@H](C)N(C)C(=O)[C@H](Cc2ccc(O)cc2)NC(=O)[C@H](Cc2ccc(-c3ccccc3)cc2)NC1=O [Compound 1906] ({CH2CO}-Y(Carboxymethyl)[4Pal]DWL[Bip]Y[NMeA][dL][Dab][Cha]VSCN-NH2; thioether N-14)
0.12 µM	CC(C)C[C@@H]1NC(=O)[C@H](Cc2c[nH]c3ccccc23)NC(=O)[C@H](CC(=O)O)NC(=O)[C@H](Cc2ccncc2)NC(=O)[C@H](Cc2ccc(OCC(=O)O)cc2)NC(=O)CSC[C@@H](C(=O)N[C@H](CC(N)=O)C(N)=O)NC(=O)[C@H](CO)NC(=O)[C@H](C(C)C)NC(=O)[C@H](CC2CCCCC2)NC(=O)[C@H](CCN)NC(=O)[C@@H](CC(C)C)NC(=O)[C@H](C)N(C)C(=O)[C@H](Cc2ccc(O)cc2)NC(=O)[C@H](Cc2ccc(-c3ccccc3)cc2)NC1=O [Compound 1907] ({CH2CO}-Y(Carboxymethyl)[4Pal]DWL[Bip]Y[NMeA][dL][Dab][Cha]VSC[dN]-NH2; thioether N-14)
0.04 µM	CC(C)C[C@@H]1NC(=O)[C@H](Cc2c[nH]c3ccccc23)NC(=O)[C@H](CC(=O)O)NC(=O)[C@H](Cc2ccncc2)NC(=O)[C@H](Cc2ccc(OCC(=O)O)cc2)NC(=O)CSC[C@@H](C(=O)N[C@@H](CCN)C(N)=O)NC(=O)[C@H](CO)NC(=O)[C@H](C(C)C)NC(=O)[C@H](CC2CCCCC2)NC(=O)[C@H](CCN)NC(=O)[C@@H](CC(C)C)NC(=O)[C@H](C)N(C)C(=O)[C@H](Cc2ccc(O)cc2)NC(=O)[C@H](Cc2ccc(-c3ccccc3)cc2)NC1=O [Compound 1908] ({CH2CO}-Y(Carboxymethyl)[4Pal]DWL[Bip]Y[NMeA][dL][Dab][Cha]VSC[Dab]-NH2; thioether N-14)
0.01 µM	CC(C)C[C@@H]1NC(=O)[C@H](Cc2c[nH]c3ccccc23)NC(=O)[C@H](CC(=O)O)NC(=O)[C@H](Cc2ccc(C(=O)O)cc2)NC(=O)[C@H](Cc2ccc(OCC(=O)O)cc2)NC(=O)CSC[C@@H](C(=O)N[C@@H](CCN)C(N)=O)NC(=O)[C@H](CO)NC(=O)[C@H](C(C)C)NC(=O)[C@H](CC2CCCCC2)NC(=O)[C@H](CCN)NC(=O)[C@@H](CC(C)C)NC(=O)[C@H](C)N(C)C(=O)[C@H](C(C)C)NC(=O)[C@H](Cc2ccc(-c3ccccc3)cc2)NC1=O [Compound 1909] ({CH2CO}-Y(Carboxymethyl)[Phe(4-COOH)]DWL[Bip]V[NMeA][dL][Dab][Cha]VSC[Dab]-NH2; thioether N-14)
0.02 µM	CCC(C)[C@@H]1NC(=O)[C@H](Cc2ccc(-c3ccccc3)cc2)NC(=O)[C@H](CC(C)C)NC(=O)[C@H](Cc2c[nH]c3ccccc23)NC(=O)[C@H](CC(=O)O)NC(=O)[C@H](Cc2ccc(C(=O)O)cc2)NC(=O)[C@H](Cc2ccc(OCC(=O)O)cc2)NC(=O)CSC[C@@H](C(=O)N[C@@H](CCN)C(N)=O)NC(=O)[C@H](CO)NC(=O)[C@H](C(C)C)NC(=O)[C@H](CC2CCCCC2)NC(=O)[C@H](CCN)NC(=O)[C@@H](CC(C)C)NC(=O)[C@H](C)N(C)C1=O (stereo partly drawn) [Compound 1910] ({CH2CO}-Y(Carboxymethyl)[Phe(4-COOH)]DWL[Bip][Ile(3ξ)][NMeA][dL][Dab][Cha]VSC[Dab]-NH2; thioether N-14)
0.01 µM	CC(C)C[C@@H]1NC(=O)[C@H](Cc2c[nH]c3ccccc23)NC(=O)[C@H](CC(=O)O)NC(=O)[C@H](Cc2ccc(C(=O)O)cc2)NC(=O)[C@H](Cc2ccc(OCC(=O)O)cc2)NC(=O)CSC[C@@H](C(=O)N[C@@H](CC(N)=O)C(N)=O)NC(=O)[C@H](CO)NC(=O)[C@H](C(C)C)NC(=O)[C@H](CC2CCCCC2)NC(=O)[C@H](CCN)NC(=O)[C@@H](CC(C)C)NC(=O)[C@H](C)N(C)C(=O)[C@H](C(C)C)NC(=O)[C@H](Cc2ccc(-c3ccccc3)cc2)NC1=O [Compound 1911] ({CH2CO}-Y(Carboxymethyl)[Phe(4-COOH)]DWL[Bip]V[NMeA][dL][Dab][Cha]VSCN-NH2; thioether N-14)
0.02 µM	CC(C)C[C@@H]1NC(=O)[C@H](Cc2c[nH]c3ccccc23)NC(=O)[C@H](CC(=O)O)NC(=O)[C@H](Cc2ccc(C(=O)O)cc2)NC(=O)[C@H](Cc2ccc(OCC(=O)O)cc2)NC(=O)CSC[C@@H](C(=O)NC(CC(N)=O)C(N)=O)NC(=O)[C@H](CO)NC(=O)[C@H](C(C)C)NC(=O)[C@H](CC2CCCCC2)NC(=O)[C@H](CCN)NC(=O)[C@@H](CC(C)C)NC(=O)[C@H](C)N(C)C(=O)[C@H](C(C)C)NC(=O)[C@H](Cc2ccc(-c3ccccc3)cc2)NC1=O (stereo partly drawn) [Compound 1912] ({CH2CO}-Y(Carboxymethyl)[Phe(4-COOH)]DWL[Bip]V[NMeA][dL][Dab][Cha]VSC[ξN]-NH2; thioether N-14)
0.01 µM	CC(C)C[C@@H]1NC(=O)[C@H](Cc2c[nH]c3ccccc23)NC(=O)[C@H](CC(=O)O)NC(=O)[C@H](Cc2ccc(C(=O)O)cc2)NC(=O)[C@H](Cc2ccc(OCC(=O)O)cc2)NC(=O)CSC[C@@H](C(=O)N[C@@H](CO)C(N)=O)NC(=O)[C@H](CO)NC(=O)[C@H](C(C)C)NC(=O)[C@H](CC2CCCCC2)NC(=O)[C@H](CCN)NC(=O)[C@@H](CC(C)C)NC(=O)[C@H](C)N(C)C(=O)[C@H](C(C)C)NC(=O)[C@H](Cc2ccc(-c3ccccc3)cc2)NC1=O [Compound 1913] ({CH2CO}-Y(Carboxymethyl)[Phe(4-COOH)]DWL[Bip]V[NMeA][dL][Dab][Cha]VSCS-NH2; thioether N-14)
